Measurements as given in patent US20220265625A1, “COMPOSITIONS AND METHODS USING TRIGONELLINE AND MINERALS FOR PREVENTING OR TREATING CONDITIONS OR DISORDERS IN SKELETAL MUSCLE” (SOCIETE DES PRODUITS NESTLE S.A., priority 2019, published 2022).

Legend:
Human primary myoblasts = test: NAD+ colorimetric quantification in differentiated human primary myoblasts; type: cell-based; conditions: 16h, different doses
Description: After one day, the differentiation is induced by a medium change for 4 days. Cells were treated with synthetic trigonelline monohydrate (FIG. 4A) or with Fenugreek seed extract enriched in trigonelline containing 40.45% trigonelline (FIG. 4B) for 16h at difference doses. NAD+was measured using colorimetric NAD+quantification assay (Biovision NAD+/NADH Quantitation Colorimetric Kit #k337-100).

C57BL/6JRj male mice = test: Liver NAD+ after oral gavage in mice; type: in vivo; conditions: equimolar of 300mg/kg trigonelline, 120 minutes
Description: 10 weeks C57BL/6JRj male mice received trigonelline (sigma #T5509) or fenugreek seed extract enriched in trigonelline (40.45% trigonelline) by oral gavage (equimolar of 300mg/kg trigonelline, n=8/group). After 120 minutes treatment, the liver was harvested and flash frozen in liquid nitrogen. NAD+was measured in liver using an enzymatic method adapted from Dall, M., et al., Mol Cell Endocrinol, 2018. 473: p. 245-256.

[1] = test system: Human Skeletal Muscle Myotubes (HSMM); conditions: 6h
Description: Human primary myoblasts from two different donors were seeded in 6 well plates at a density of 200′000 cells per well in skeletal muscle growth medium (SKM-M, AMSbio). After one day, the differentiation was induced by a medium change for 4 days using differentiation culture medium
(Gibco No. 31330-028). Cells were treated with isotopically labelled trigonelline (^13C carbonyl; 3^2H on methyl) for 6h.
Cell extracts were separated on a Vanquish UHPLC +focused LC system (Thermo Scientific) with a hydrophilic liquid chromatography (HILIC) iHILIC-Fusion(P) column (Hilicon) carrying the dimensions 150 x 2.1 mm, 5 pm and a guard column (iHILIC-fusion(P), Hilicon) in front. The separation of metabolites was achieved by applying a linear solvent gradient in normal phase at 0.25 mL/min flow rate and 35° C. of temperature. As mobile phase, solvent A was water with 10 mM ammonium acetate and 0.04% (v/v) ammonium hydroxide, pH ˜9.3, and solvent B was acetonitrile.
The eluting metabolites were analyzed with an Orbitrap Fusion Lumos mass spectrometer (Thermo Scientific) with a heated electrospray ionization (H-ESI) source in positive and negative mode at a resolution of 60,000 at m/z of 200. Instrument control and data analysis were conducted using Xcalibur (Thermo Scientific).

C. elegans [2] = conditions: 1 mM
Description: C. elegans mobility test was performed using the Movement Tracker software (Mouchiroud, L. et al. Curr Protoc Neurosci 77, 8.37.1-8.37.21 (2016)). The experiments were repeated at least twice. Trigonelline treatment and experimental measurements were started at Day 1 of wild type N2 worm adulthood, in a regimen of chronic exposure till experiments termination.

C. elegans [3] = conditions: 1 mM, day 8 and day 11 old worms
From the text: 45 to 60 worms per condition were manually scored for mobility after poking. Worms that were unable to respond to any repeated stimulation were scored as dead. […] Trigonelline treatment and experimental measurements were started at Day 1 of wild type N2 worm adulthood, in a regimen of chronic exposure til experiments termination.

C. elegans [4] = conditions: 1mM, chronic exposure from Day 1 adulthood
Description: Worm lifespan tests were performed using about 100 animals per condition and scored manually every other day. Trigonelline treatment and experimental measurements were started at Day 1 of wild type N2 worm adulthood, in a regimen of chronic exposure till experiments termination.

C. elegans [5] = conditions: 1mM trigonelline chloride, day 8 old worms
Description: Absolute quantification of the mtDNA copy number in wild type N2 worms was performed by real-time PCR. Relative values for nduo-1, and act-1 were compared within each sample to generate a ratio representing the relative level of mitochondrial DNA per nuclear genome. The average of at least two technical repeats was used for each biological data point. Each experiment was performed on at least ten independent biological samples (individual worms). Trigonelline treatment with 1mM trigonelline chloride and experimental measurements were started at Day 1 of wild type N2 worm adulthood, in a regimen of chronic exposure till experiments termination.

[6] = test system: RW1596 (myo-3p::GFP) worms; conditions: 1mM trigonelline chloride, 11 day old worms
Description: RW1596 (myo-3p::GFP) worms were collected at Day 1 (young adults) and at Day 11 (aged animals) for muscle integrity assessment. Worms were immobilized with tetramisole and analyzed by confocal microscopy, to assess the muscle fibers morphology shown by GFP fluorescence imaging. Trigonelline treatment with 1mM trigonelline chloride and experimental measurements were started at Day 1 of wild type N2 worm adulthood, in a regimen of chronic exposure till experiments termination.

## C[n+]1cccc(C(=O)O)c1.[OH-] [chemically synthesized trigonelline]
Human primary myoblasts
  NAD+ content compared to the control: significant increase
C57BL/6JRj male mice
  NAD+ content in the liver compared to the control: significant increase

## [2H]C([2H])([2H])[n+]1cccc([13C](=O)[O-])c1 [labelled trigonelline, reference compound]
[1]; labelled trigonelline 500pm, vs naturally occurring NAD+ in control
  relative abundance of labelled NAD+(M+1) (FIG. 2B): increase

## C[n+]1cccc(C(=O)O)c1 [trigonelline chloride]
C. elegans [2]; advanced aging phase
  distance travelled during spontaneous mobility assay vs control: significantly increased
C. elegans [2]; from day 1 adulthood
  mean speed during spontaneous mobility assay vs control: increased the mean speed
C. elegans [3]
  stimulated mobility score (worms responsive to a physical stimulus): more responsive to a physical stimulus than the control
C. elegans [4]
  increase in lifespan: 21%

## C[n+]1cccc(C(=O)[O-])c1 [trigonelline, 1-methylpyridin-1-ium-3-carboxylate]
C. elegans [5]
  mitochondrial expression relative to nuclear expression (mt/nDNA, nduo-1/act-1): higher than in the control group
[6]
  myofibrillar structure (GFP-tagged myosin) vs age matched control: improved more organized myofibrillar structure
[1]; HSMM from 2 donors, 500pm, LC-MS
  NAD+ relative concentration vs control (FIG. 2A): enhancement
